Data taken from ChEMBL document CHEMBL3739366, “Discovery of HTL6641, a dual orexin receptor antagonist with differentiated pharmacodynamic properties” (Medchemcomm, 2015).
Calls of active or inactive are those of the source. The calls are words filed in the database; no cut-off is given here.

Assays:
[1] = tested on: Salmonella typhimurium; test: Genotoxicity in Salmonella typhimurium by Ames test in absence of S9 fraction; format: toxicity, organism-based; settings: salmonella enterica subsp. enterica serovar typhimurium
[2] = Half life in Sprague-Dawley rat at 2 mg/kg, po; format: ADME, organism-based; settings: in vivo
[3] = Oral bioavailability in beagle dog at 1 mg/kg; format: ADME, organism-based, Canis lupus familiaris; settings: in vivo
[4] = tested on: Rattus norvegicus; test: Antiinsomnic activity in CD1 rat assessed as increase of promoted sleep at 3 to 10 mg/kg, po administered at circadian time 18 hrs measured after 3 hrs; format: functional
[5] = tested on: Rattus norvegicus; test: Antiinsomnic activity in CD1 rat assessed as increase of REM sleep at 10 mg/kg, po administered at circadian time 18 hrs measured after 3 hrs; format: functional
[6] = molecular target: T1, Orexin/Hypocretin receptor type 1 (Homo sapiens) (UniProt O43613); settings: CHO
T1 sequence (whole entry): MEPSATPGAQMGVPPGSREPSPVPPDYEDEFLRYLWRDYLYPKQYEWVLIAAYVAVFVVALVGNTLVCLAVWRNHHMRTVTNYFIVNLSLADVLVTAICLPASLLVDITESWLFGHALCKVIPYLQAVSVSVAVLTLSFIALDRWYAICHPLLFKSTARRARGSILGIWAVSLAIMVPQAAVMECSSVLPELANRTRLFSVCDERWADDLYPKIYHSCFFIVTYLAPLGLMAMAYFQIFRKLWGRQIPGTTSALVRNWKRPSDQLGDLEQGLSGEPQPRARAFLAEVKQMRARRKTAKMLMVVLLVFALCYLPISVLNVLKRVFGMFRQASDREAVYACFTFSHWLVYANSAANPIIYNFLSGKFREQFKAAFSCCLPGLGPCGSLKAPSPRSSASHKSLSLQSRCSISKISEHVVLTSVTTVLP
Description: Antagonist activity at human orexin receptor-1 expressed in CHO cells assessed as orexin-A-induced ERK1/2 phosphorylation after 2 hrs by fluorescence assay

[7] = tested on: Salmonella typhimurium; test: Genotoxicity in Salmonella typhimurium by Ames test in presence of S9 fraction; format: toxicity, organism-based; settings: salmonella enterica subsp. enterica serovar typhimurium
[8] = Tmax in Sprague-Dawley rat at 2 mg/kg, po; format: ADME, organism-based; settings: in vivo
[9] = tested on: Rattus norvegicus; test: AUC (infinity) in Sprague-Dawley rat at 2 mg/kg, po; format: ADME, organism-based; set-up: dose 2 mg/kg, route oral, time infinity; settings: in vivo
[10] = Plasma protein binding in dog; format: ADME, cell-free, Canis lupus familiaris; settings: read-out: PPB (converted)
[11] = tested on: Canis familiaris; test: AUC (infinity) in beagle dog at 1 mg/kg, po; format: ADME, organism-based, Canis lupus familiaris; set-up: dose 1 mg/kg, route oral, time infinity; settings: in vivo
[12] = Half life in dog hepatocytes; format: ADME, cell-based, Canis lupus familiaris, Hepatocyte
[13] = Ratio of drug level in cerebrospinal fluid to brain in Sprague-Dawley rat at 1 mg/kg, iv after 0.5 hrs; format: ADME, organism-based, CSF/Brain; settings: in vivo
[14] = Plasma protein binding in mouse; format: ADME, cell-free; settings: read-out: PPB (converted)
[15] = Volume of distribution at steady state in Sprague-Dawley rat at 1 mg/kg, iv; format: ADME, organism-based; settings: in vivo, read-out: Vdss
[16] = tested on: Rattus norvegicus; test: Ex-vivo receptor occupancy of orexin receptor-2 Sprague-Dawley rat frontal cortex using [3H]EMPA at 1 mg/kg, po after 1 hr by autoradiography relative to control; format: functional
[17] = Mean residence time in Sprague-Dawley rat; format: ADME, organism-based; settings: in vivo
[18] = Clearance in Sprague-Dawley rat at 1 mg/kg, iv; format: ADME, organism-based; settings: in vivo
[19] = tested on: Rattus norvegicus; test: Antiinsomnic activity in CD1 rat assessed as hypnotic effect at 3 to 10 mg/kg, po administered at circadian time 18 hrs measured after 2 to 3 hrs; format: functional, organism-based
[20] = tested on: Rattus norvegicus; test: Effect on latency to first NREM episode CD1 rat assessed as reduction of at 3 and 10 mg/kg, po administered at circadian time 18 hrs; format: ADME, organism-based; settings: in vivo
[21] = molecular target: Cytochrome P450 3A4 (Homo sapiens, UniProt P08684); test: Inhibition of CYP3A4 (unknown origin); format: ADME
[22] = Half life in rat liver microsomes; format: ADME
[23] = Half life in rat hepatocytes; format: ADME, cell-based, Hepatocyte
[24] = molecular target: Cytochrome P450 2D6 (Homo sapiens, UniProt P10635); test: Inhibition of CYP2D6 (unknown origin); format: ADME
[25] = tested on: Rattus norvegicus; test: Antiinsomnic activity in CD1 rat assessed as increase of NREM sleep at 10 mg/kg, po administered at circadian time 18 hrs measured after 3 hrs; format: functional
[26] = Half life in cynomolgus monkey hepatocytes; format: ADME, cell-based, Macaca fascicularis, Hepatocyte
[27] = Plasma concentration in Sprague-Dawley rat plasma at 1 mg/kg, po after 1 hr; format: ADME, organism-based
[28] = Bidirectional apparent permeability of the compound across human Caco2 cells; format: ADME, cell-based; settings: Caco-2, read-out: permeability
[29] = tested on: Rattus norvegicus; test: Antiinsomnic activity in CD1 rat assessed as reduction of time taken for latency to first REM episode at 10 mg/kg, po administered at 18 hrs after circadian time; format: functional; set-up: scale not given: the % may be the effect or the level left
[30] = Oral bioavailability in Sprague-Dawley rat at 2 mg/kg; format: ADME, organism-based; settings: in vivo

Sequence of Cytochrome P450 2D6 (P10635 whole entry): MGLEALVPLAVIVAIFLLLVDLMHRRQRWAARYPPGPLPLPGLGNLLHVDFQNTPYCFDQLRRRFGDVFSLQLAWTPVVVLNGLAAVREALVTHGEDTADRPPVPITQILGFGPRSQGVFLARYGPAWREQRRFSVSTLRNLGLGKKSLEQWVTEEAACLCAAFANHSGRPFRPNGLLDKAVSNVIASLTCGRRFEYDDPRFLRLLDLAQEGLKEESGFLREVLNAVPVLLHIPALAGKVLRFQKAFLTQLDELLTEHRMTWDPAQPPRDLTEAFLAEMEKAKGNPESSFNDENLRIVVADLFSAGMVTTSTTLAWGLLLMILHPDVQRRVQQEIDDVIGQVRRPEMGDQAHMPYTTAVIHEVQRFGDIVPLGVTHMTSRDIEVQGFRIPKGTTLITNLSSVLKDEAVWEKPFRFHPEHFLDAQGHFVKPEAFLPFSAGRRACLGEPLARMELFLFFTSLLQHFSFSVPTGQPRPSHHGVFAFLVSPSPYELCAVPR
Sequence of Cytochrome P450 3A4 (P08684 whole entry): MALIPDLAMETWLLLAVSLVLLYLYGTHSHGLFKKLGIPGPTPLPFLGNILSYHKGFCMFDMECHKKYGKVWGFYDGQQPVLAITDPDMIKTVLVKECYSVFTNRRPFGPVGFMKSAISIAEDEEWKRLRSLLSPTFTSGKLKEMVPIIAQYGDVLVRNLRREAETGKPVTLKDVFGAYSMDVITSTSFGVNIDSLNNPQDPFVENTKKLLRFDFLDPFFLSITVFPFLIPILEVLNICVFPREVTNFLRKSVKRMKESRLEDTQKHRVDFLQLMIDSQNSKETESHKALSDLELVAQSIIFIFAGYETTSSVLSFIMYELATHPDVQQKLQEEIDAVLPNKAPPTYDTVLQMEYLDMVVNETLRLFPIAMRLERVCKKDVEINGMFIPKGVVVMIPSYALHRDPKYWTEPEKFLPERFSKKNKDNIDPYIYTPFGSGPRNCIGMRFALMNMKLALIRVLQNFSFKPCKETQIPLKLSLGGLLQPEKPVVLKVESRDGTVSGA

## COc1cc(N2C(=O)N(Cc3c(F)cc(F)cc3F)c3ncccc3S2(=O)=O)cnc1OC
[1]
  Activity: Non-toxic
[2]
  half-life: 1.8 h
[3]
  bioavailability: 70%
[4]
  Activity: 17.4%
[5]
  Activity: 69.6%
[6]
  pKb: 6.6
[7]
  Activity: Non-toxic
[8]
  Tmax: 0.5 h
[9]
  AUC: 1220 ng·h/mL
[10]
  fraction unbound: 0.019
[11]
  AUC: 2440 ng·h/mL
[12]
  half-life: > 1.83 h
[13]
  Ratio: 0.01
[14]
  fraction unbound: 0.008
[15]
  Vd: 2.1 L/kg
[16]
  Occ: 57%
[17]
  MRT: 1.9 h
[18]
  clearance: 18 mL/min/kg
[19]
  Activity: Active
[20]
  Activity: Non-toxic
[21]
  IC50: > 10 µM
[22]
  half-life: 0.383 h
[23]
  half-life: > 1.83 h
[24]
  IC50: > 10 µM
[25]
  Activity: 30.7%
[26]
  half-life: > 4.17 h
[27]
  concentration at 1 h: 72 ng/mL
[28]
  Papp: 52 ×10⁻⁶ cm/s
[29]
  Activity: 35%
[30]
  bioavailability: 66%
